Assay results taken from the CheMixHub viscosity set.

Assay: xn = mol fraction of the nth substance listed

CCCCCCCCCO + CCOC(=O)OCC
101 kPa
Settings	viscosity [mPa·s]
293.15 K, x1 = 0.008	0.816
293.15 K, x2 = 0.03967	9.964
293.15 K, x2 = 0.1094	7.69
293.15 K, x2 = 0.1857	5.899
293.15 K, x2 = 0.2865	4.28
293.15 K, x2 = 0.4032	3.037
293.15 K, x2 = 0.504	2.306
293.15 K, x2 = 0.5999	1.794
293.15 K, x2 = 0.6927	1.434
293.15 K, x2 = 0.8085	1.112
293.15 K, x2 = 0.8962	0.941
303.15 K, x1 = 0.00855	0.711
303.15 K, x2 = 0.03166	7.163
303.15 K, x2 = 0.1064	5.544
303.15 K, x2 = 0.1908	4.257
303.15 K, x2 = 0.2925	3.17
303.15 K, x2 = 0.4014	2.365
303.15 K, x2 = 0.5113	1.798
303.15 K, x2 = 0.62	1.39
303.15 K, x2 = 0.6981	1.173
303.15 K, x2 = 0.8041	0.949
303.15 K, x2 = 0.893	0.815
313.15 K, x1 = 0.00592	0.625
313.15 K, x2 = 0.06302	4.663
313.15 K, x2 = 0.1089	4.053
313.15 K, x2 = 0.1969	3.156
313.15 K, x2 = 0.301	2.399
313.15 K, x2 = 0.4008	1.879
313.15 K, x2 = 0.5098	1.458
313.15 K, x2 = 0.6011	1.199
313.15 K, x2 = 0.689	1.006
313.15 K, x2 = 0.8072	0.812
313.15 K, x2 = 0.8932	0.711

O=[N+]([O-])c1ccccc1O + CN1CCC[C@H]1c1cccnc1
viscosity [mPa·s], 101.33 kPa
Settings	308.15 K	323.15 K
x2 = 0.102	–	2.724
x2 = 0.1563	5.072	3.073
x2 = 0.2019	5.996	3.527
x2 = 0.302	7.601	4.122
x2 = 0.3189	7.832	4.24
x2 = 0.3345	8.011	4.344
x2 = 0.3506	8.004	4.389
x2 = 0.3662	7.982	4.388
x2 = 0.4077	7.889	4.362
x2 = 0.5005	7.375	4.12
x2 = 0.603	6.569	3.83
x2 = 0.6988	5.676	3.421
x2 = 0.7988	4.612	2.927
x2 = 0.8937	3.86	2.523

CC(=O)N(C)C + CN(C)C=O
viscosity [mPa·s], 101 kPa
Settings	298.15 K	308.15 K	318.15 K
x1 = 0.05	0.809	0.718	0.642
x1 = 0.1062	0.816	0.724	0.647
x1 = 0.15	0.822	0.729	0.652
x1 = 0.2171	0.831	0.737	0.658
x1 = 0.26	0.837	0.742	0.662
x1 = 0.3094	0.843	0.747	0.666
x1 = 0.35	0.849	0.752	0.67
x1 = 0.405	0.856	0.758	0.675
x1 = 0.455	0.863	0.763	0.679
x1 = 0.5042	0.87	0.769	0.684
x1 = 0.55	0.876	0.774	0.688
x1 = 0.6071	0.883	0.781	0.694
x1 = 0.655	0.89	0.786	0.698
x1 = 0.714	0.898	0.793	0.704
x1 = 0.75	0.903	0.797	0.707
x1 = 0.7968	0.909	0.803	0.712
x1 = 0.85	0.916	0.809	0.717
x1 = 0.9112	0.925	0.816	0.723
x1 = 0.95	0.93	0.82	0.727

CC1CCCCC1=O (stereo not drawn) + CN(C)C=O
viscosity [mPa·s], 100 kPa
Settings	x1 = 0.0825	x1 = 0.1712	x1 = 0.2787	x1 = 0.3863	x1 = 0.4889	x1 = 0.5801	x1 = 0.6819	x1 = 0.7805	x1 = 0.8801
303.15 K	0.889	1.027	1.192	1.353	1.505	1.638	1.783	1.921	2.06
308.15 K	0.85	0.987	1.15	1.309	1.459	1.59	1.735	1.872	2.009
313.15 K	0.81	0.948	1.108	1.266	1.413	1.543	1.688	1.824	1.959

CCCCCCCCCO + CN(C)C=O
Settings	viscosity [mPa·s]
308.15 K, 101.3 kPa, x2 = 0.2201	2.965

CC1CCCCC1=O (stereo not drawn) + CN(C)c1ccccc1
viscosity [mPa·s], 101 kPa
Settings	303.15 K	308.15 K
x2 = 0.0798	2.088	2.021
x2 = 0.1302	2.007	1.934
x2 = 0.2014	1.899	1.82
x2 = 0.2705	1.801	1.718
x2 = 0.3456	1.704	1.618
x2 = 0.4121	1.625	1.536
x2 = 0.4952	1.536	1.446
x2 = 0.5625	1.471	1.379
x2 = 0.6325	1.41	1.318
x2 = 0.7025	1.355	1.264
x2 = 0.7652	1.31	1.221
x2 = 0.8312	1.268	1.183
x2 = 0.9025	1.226	1.148

CC1CCCCC1=O (stereo not drawn) + CNC=O
viscosity [mPa·s], 100 kPa
Settings	x1 = 0.0925	x1 = 0.1835	x1 = 0.2805	x1 = 0.3919	x1 = 0.4985	x1 = 0.5995	x1 = 0.6901	x1 = 0.7921	x1 = 0.8995
303.15 K	1.655	1.722	1.79	1.865	1.934	1.997	2.052	2.111	2.171
308.15 K	1.541	1.614	1.689	1.771	1.847	1.917	1.978	2.045	2.111
313.15 K	1.439	1.518	1.597	1.684	1.766	1.842	1.909	1.982	2.053
